From PubChem BioAssay AID2060886 (Molecular Pharmacology Branch, DTP, NCI, 2025)

Test system: 653999-131-R-J2-PDC complex spheroids, growth inhibition
Experiment: Anticancer human tumor 653999-131-R-J2-PDC patient-derived lung adenocarcinoma cell line growth inhibition [RAS]
Details: for IC50: curve of first compound; for viability, T/C: stronger effect = lower value
Summary of the method: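 Tumour cells grown as complex spheroids with HUVEC endothelial cells and mesenchymal stem cells, treated with RAS pathway inhibitor combinations. Each agent spans half-log steps from near clinical Cmax, or 10 microM where Cmax is unknown.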
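Further: spheroids exposed to the agents for seven days before the readout.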

In the case of `CCc1c2c(nc3ccc(O)cc13)-c1cc3c(c(=O)n1C2)COC(=O)[C@]3(O)CC` + CCn1c(-c2cc(N3CCN(C)CC3)cnc2C(C)OC)c2c3cc(ccc31)-c1csc(n1)CC(NC(=O)C1CC1C)C(=O)N1CCCC(N1)C(=O)OCC(C)(C)C2, the IC50 (second compound 0.000949 µM) is reported as 3.61 nM, the IC50 (second compound 0.003 µM) is reported as 1.3 nM and the IC50 (second compound 0.00949 µM) is reported as < 0.949 nM. The IC50 (second compound 0.03 µM) was < 0.949 nM, the IC50 (second compound 0.0949 µM) was < 0.949 nM and the IC50 (second compound 0.3 µM) was < 0.949 nM. For the same molecule, the viability, T/C (second compound 0.000949 µM, first compound 0.000949 µM) was 70.2%, the viability, T/C (second compound 0.000949 µM, first compound 0.003 µM) was 48.4% and the viability, T/C (second compound 0.000949 µM, first compound 0.00949 µM) was 42.2%. For the same molecule, the viability, T/C (second compound 0.000949 µM, first compound 0.03 µM) was 25.1%, the viability, T/C (second compound 0.000949 µM, first compound 0.0949 µM) was 17.2% and the viability, T/C (second compound 0.000949 µM, first compound 0.3 µM) was 11.2%. The viability, T/C (second compound 0.003 µM, first compound 0.000949 µM) was 56%, the viability, T/C (second compound 0.003 µM, first compound 0.003 µM) was 34.1% and the viability, T/C (second compound 0.003 µM, first compound 0.00949 µM) was 30.6%. The viability, T/C (second compound 0.003 µM, first compound 0.03 µM) was 17.5%, the viability, T/C (second compound 0.003 µM, first compound 0.0949 µM) was 14.7% and the viability, T/C (second compound 0.003 µM, first compound 0.3 µM) was 10.1%. The viability, T/C (second compound 0.00949 µM, first compound 0.000949 µM) was 39.1%, the viability, T/C (second compound 0.00949 µM, first compound 0.003 µM) was 27.3% and the viability, T/C (second compound 0.00949 µM, first compound 0.00949 µM) was 18.9%. The viability, T/C (second compound 0.00949 µM, first compound 0.03 µM) was 14.1%, the viability, T/C (second compound 0.00949 µM, first compound 0.0949 µM) was 9.53% and the viability, T/C (second compound 0.00949 µM, first compound 0.3 µM) was 6.56%. For the same molecule, the viability, T/C (second compound 0.03 µM, first compound 0.000949 µM) was 29.8%, the viability, T/C (second compound 0.03 µM, first compound 0.003 µM) was 18.2% and the viability, T/C (second compound 0.03 µM, first compound 0.00949 µM) was 17.8%. It also gave a viability, T/C (second compound 0.03 µM, first compound 0.03 µM) of 9.32%, a viability, T/C (second compound 0.03 µM, first compound 0.0949 µM) of 6.76% and a viability, T/C (second compound 0.03 µM, first compound 0.3 µM) of 6.96%. For the same molecule, the viability, T/C (second compound 0.0949 µM, first compound 0.000949 µM) was 23.9%, the viability, T/C (second compound 0.0949 µM, first compound 0.003 µM) was 15.4% and the viability, T/C (second compound 0.0949 µM, first compound 0.00949 µM) was 11.4%. It also gave a viability, T/C (second compound 0.0949 µM, first compound 0.03 µM) of 9.9%, a viability, T/C (second compound 0.0949 µM, first compound 0.0949 µM) of 7.72% and a viability, T/C (second compound 0.0949 µM, first compound 0.3 µM) of 5.39%. It also gave a viability, T/C (second compound 0.3 µM, first compound 0.000949 µM) of 21.1%, a viability, T/C (second compound 0.3 µM, first compound 0.003 µM) of 14.4% and a viability, T/C (second compound 0.3 µM, first compound 0.00949 µM) of 11.6%. It also gave a viability, T/C (second compound 0.3 µM, first compound 0.03 µM) of 9.69%, a viability, T/C (second compound 0.3 µM, first compound 0.0949 µM) of 6.54% and a viability, T/C (second compound 0.3 µM, first compound 0.3 µM) of 4.62%.
`C=CC(=O)N1CCN(c2nc(OCC3CCCN3C)nc3c(F)c(-c4nc(N)cc(C)c4C(F)(F)F)c(Cl)cc23)C(C)C1` (stereo unspecified) + C#Cc1c(F)ccc2cc(O)cc(-c3ncc4c(N5CC6CCC(C5)N6)nc(OCC56CCCN5CC(F)C6)nc4c3F)c12 was tested, and the IC50 (second compound 0.0316 µM) was > 1000 nM, the IC50 (second compound 0.1 µM) was > 1000 nM and the IC50 (second compound 0.316 µM) was > 1000 nM. The IC50 (second compound 1 µM) was > 1000 nM, the IC50 (second compound 3.16 µM) was < 3.16 nM and the IC50 (second compound 10 µM) was < 3.16 nM. For the same molecule, the viability, T/C (second compound 0.0316 µM, first compound 0.00316 µM) was 117%, the viability, T/C (second compound 0.0316 µM, first compound 0.01 µM) was 91.3% and the viability, T/C (second compound 0.0316 µM, first compound 0.0316 µM) was 95.9%. It also gave a viability, T/C (second compound 0.0316 µM, first compound 0.1 µM) of 82.3%, a viability, T/C (second compound 0.0316 µM, first compound 0.316 µM) of 99.1% and a viability, T/C (second compound 0.0316 µM, first compound 1 µM) of 85.2%. It also gave a viability, T/C (second compound 0.1 µM, first compound 0.00316 µM) of 92.7%, a viability, T/C (second compound 0.1 µM, first compound 0.01 µM) of 84.1% and a viability, T/C (second compound 0.1 µM, first compound 0.0316 µM) of 73.9%. It also gave a viability, T/C (second compound 0.1 µM, first compound 0.1 µM) of 78.5%, a viability, T/C (second compound 0.1 µM, first compound 0.316 µM) of 83.3% and a viability, T/C (second compound 0.1 µM, first compound 1 µM) of 73.1%. It also gave a viability, T/C (second compound 0.316 µM, first compound 0.00316 µM) of 71.7%, a viability, T/C (second compound 0.316 µM, first compound 0.01 µM) of 62.5% and a viability, T/C (second compound 0.316 µM, first compound 0.0316 µM) of 65.6%. For the same molecule, the viability, T/C (second compound 0.316 µM, first compound 0.1 µM) was 67.8%, the viability, T/C (second compound 0.316 µM, first compound 0.316 µM) was 70.2% and the viability, T/C (second compound 0.316 µM, first compound 1 µM) was 52.8%. For the same molecule, the viability, T/C (second compound 1 µM, first compound 0.00316 µM) was 41.5%, the viability, T/C (second compound 1 µM, first compound 0.01 µM) was 63% and the viability, T/C (second compound 1 µM, first compound 0.0316 µM) was 54%. It also gave a viability, T/C (second compound 1 µM, first compound 0.1 µM) of 53.8%, a viability, T/C (second compound 1 µM, first compound 0.316 µM) of 55.4% and a viability, T/C (second compound 1 µM, first compound 1 µM) of 46.5%. It also gave a viability, T/C (second compound 3.16 µM, first compound 0.00316 µM) of 38%, a viability, T/C (second compound 3.16 µM, first compound 0.01 µM) of 55.2% and a viability, T/C (second compound 3.16 µM, first compound 0.0316 µM) of 39%. The viability, T/C (second compound 3.16 µM, first compound 0.1 µM) was 35%, the viability, T/C (second compound 3.16 µM, first compound 0.316 µM) was 43.8% and the viability, T/C (second compound 3.16 µM, first compound 1 µM) was 31.4%. For the same molecule, the viability, T/C (second compound 10 µM, first compound 0.00316 µM) was 24.5%, the viability, T/C (second compound 10 µM, first compound 0.01 µM) was 26.7% and the viability, T/C (second compound 10 µM, first compound 0.0316 µM) was 20.8%. For the same molecule, the viability, T/C (second compound 10 µM, first compound 0.1 µM) was 31.9%, the viability, T/C (second compound 10 µM, first compound 0.316 µM) was 27% and the viability, T/C (second compound 10 µM, first compound 1 µM) was 29.6%.
For `CCc1c2c(nc3ccc(O)cc13)-c1cc3c(c(=O)n1C2)COC(=O)[C@]3(O)CC` + C#Cc1c(F)ccc2cc(O)cc(-c3ncc4c(N5CC6CCC(C5)N6)nc(OCC56CCCN5CC(F)C6)nc4c3F)c12, the IC50 (second compound 0.0316 µM) was 7.6 nM, the IC50 (second compound 0.1 µM) was 7.98 nM and the IC50 (second compound 0.316 µM) was 1.67 nM. The IC50 (second compound 1 µM) was < 0.949 nM, the IC50 (second compound 3.16 µM) was < 0.949 nM and the IC50 (second compound 10 µM) was < 0.949 nM. For the same molecule, the viability, T/C (second compound 0.0316 µM, first compound 0.000949 µM) was 85.8%, the viability, T/C (second compound 0.0316 µM, first compound 0.003 µM) was 68.4% and the viability, T/C (second compound 0.0316 µM, first compound 0.00949 µM) was 43.6%. It also gave a viability, T/C (second compound 0.0316 µM, first compound 0.03 µM) of 30.7%, a viability, T/C (second compound 0.0316 µM, first compound 0.0949 µM) of 24.1% and a viability, T/C (second compound 0.0316 µM, first compound 0.3 µM) of 14.2%. The viability, T/C (second compound 0.1 µM, first compound 0.000949 µM) was 83.9%, the viability, T/C (second compound 0.1 µM, first compound 0.003 µM) was 58.7% and the viability, T/C (second compound 0.1 µM, first compound 0.00949 µM) was 48.4%. It also gave a viability, T/C (second compound 0.1 µM, first compound 0.03 µM) of 35.2%, a viability, T/C (second compound 0.1 µM, first compound 0.0949 µM) of 22.9% and a viability, T/C (second compound 0.1 µM, first compound 0.3 µM) of 12.2%. The viability, T/C (second compound 0.316 µM, first compound 0.000949 µM) was 57.5%, the viability, T/C (second compound 0.316 µM, first compound 0.003 µM) was 41.4% and the viability, T/C (second compound 0.316 µM, first compound 0.00949 µM) was 32.2%. It also gave a viability, T/C (second compound 0.316 µM, first compound 0.03 µM) of 23.5%, a viability, T/C (second compound 0.316 µM, first compound 0.0949 µM) of 17.5% and a viability, T/C (second compound 0.316 µM, first compound 0.3 µM) of 13.3%. For the same molecule, the viability, T/C (second compound 1 µM, first compound 0.000949 µM) was 40.3%, the viability, T/C (second compound 1 µM, first compound 0.003 µM) was 26.4% and the viability, T/C (second compound 1 µM, first compound 0.00949 µM) was 21.4%. The viability, T/C (second compound 1 µM, first compound 0.03 µM) was 20.2%, the viability, T/C (second compound 1 µM, first compound 0.0949 µM) was 15.1% and the viability, T/C (second compound 1 µM, first compound 0.3 µM) was 20.8%. For the same molecule, the viability, T/C (second compound 3.16 µM, first compound 0.000949 µM) was 39.2%, the viability, T/C (second compound 3.16 µM, first compound 0.003 µM) was 21.2% and the viability, T/C (second compound 3.16 µM, first compound 0.00949 µM) was 16.6%. The viability, T/C (second compound 3.16 µM, first compound 0.03 µM) was 11.6%, the viability, T/C (second compound 3.16 µM, first compound 0.0949 µM) was 9.96% and the viability, T/C (second compound 3.16 µM, first compound 0.3 µM) was 7.39%. It also gave a viability, T/C (second compound 10 µM, first compound 0.000949 µM) of 26.8%, a viability, T/C (second compound 10 µM, first compound 0.003 µM) of 17.8% and a viability, T/C (second compound 10 µM, first compound 0.00949 µM) of 12.5%. It also gave a viability, T/C (second compound 10 µM, first compound 0.03 µM) of 9.45%, a viability, T/C (second compound 10 µM, first compound 0.0949 µM) of 7.29% and a viability, T/C (second compound 10 µM, first compound 0.3 µM) of 4.35%.
